Here are results for 20 compounds from the supplement of paper PMC10627819.

Assay in all cases: Bliss interaction score (quartile over a dose matrix) (fitness difference); higher = more antagonism (negative = synergy)
For test [1], the system named is S. pneumoniae D39V. A digest of the protocol: (§1)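 The Bliss score is observed fitness minus expected fitness, where the expected value is the product of single-drug fitness values inferred from combination data. Fitness is OD595 at entry into stationary phase normalised to the plate's robust no-drug mean and capped at 1. Scores are reported as quartiles spanning technical, biological and donor/recipient replicates.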

For test [2], the system named is S. aureus DSM 20231. A digest of the protocol: as §1
Test [3] concerns S. aureus Newman. A digest of the protocol:
as §1

Test [4] deals with B. subtilis 168. A digest of the protocol: as §1
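Further: first quartile when negative (synergy) and third quartile when positive (antagonism).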

`N[C@@H]1CONC1=O` [CycloserineD] + CO[C@H]1/C=C/O[C@@]2(C)Oc3c(C)c(O)c4c(O)c(c(/C=N/N5CCN(C)CC5)c(O)c4c3C2=O)NC(=O)/C(C)=C\C=C\[C@H](C)[C@H](O)[C@@H](C)[C@@H](O)[C@@H](C)[C@H](OC(C)=O)[C@@H]1C [Rifampicin]: the Bliss interaction score was 0.163 in test [1], -0.0935 in test [2], 0.0463 in test [3] and 0.0563 in test [4].
Turning to `N[C@@H]1CONC1=O` [CycloserineD] + COc1c(N2C[C@@H]3CCCN[C@@H]3C2)c(F)cc2c(=O)c(C(=O)O)cn(C3CC3)c12 [Moxifloxacin], the Bliss interaction score is 0.0969 in test [1], -0.0873 in test [2], -0.0769 in test [3] and -0.0252 in test [4].
Turning to `N[C@@H]1CONC1=O` [CycloserineD] + COc1cc(Cc2cnc(N)nc2N)cc(OC)c1OC [Trimethoprim], the Bliss interaction score in test [1] was 0.0932; in test [2], -0.0585; in test [3], -0.067; in test [4] it was 0.0782.
For `N[C@@H]1CONC1=O` [CycloserineD] + COc1ccc(C[C@H](N)C(=O)N[C@H]2[C@@H](O)[C@H](n3cnc4c(N(C)C)ncnc43)O[C@@H]2CO)cc1 [Puromycin], in that order: 0.142, 0.0925, 0.051 and 0.0439.
In the case of `N[C@@H]1CONC1=O` [CycloserineD] + COc1cccc2c1C(=O)c1c(O)c3c(c(O)c1C2=O)C[C@@](O)(C(=O)CO)C[C@@H]3O[C@H]1C[C@H](N)[C@H](O)[C@H](C)O1 [Doxorubicin], the Bliss interaction score is 0.0698 in test [1], 0.0418 in test [2], -0.0446 in test [3] and 0.0778 in test [4].
As to `N[C@@H]1CONC1=O` [CycloserineD] + C[C@@H]1O[C@@H]1P(=O)(O)O [Fosfomycin], the Bliss interaction score was 0.0808 in test [1], -0.0611 in test [2], -0.033 in test [3] and -0.046 in test [4].
For `N[C@@H]1CONC1=O` [CycloserineD] + C[C@@H](O)[C@H]1C(=O)N2C(C(=O)O)=C(SCCNC=N)C[C@H]12 [Imipenem], the Bliss interaction score in test [1] was -0.235; in test [2] it was 0.0715; in test [3], -0.0358; in test [4], 0.0545.
As to `N[C@@H]1CONC1=O` [CycloserineD] + C[C@H]1COc2c(N3CCN(C)CC3)c(F)cc3c(=O)c(C(=O)O)cn1c23 [Levofloxacin], the Bliss interaction score is 0.0882 in test [1], -0.12 in test [2], -0.131 in test [3] and 0.0199 in test [4].
Consider `N[C@@H]1CONC1=O` [CycloserineD] + C[C@H]1c2cccc(O)c2C(=O)C2=C(O)[C@]3(O)C(=O)C(C(N)=O)=C(O)[C@@H](N(C)C)[C@@H]3[C@@H](O)[C@@H]21 [Doxycycline], for which the Bliss interaction score in test [1] is 0.243; in test [2], -0.116; in test [3] it was -0.0254; in test [4] it was 0.0526.
Consider `N[C@@H]1CONC1=O` [CycloserineD] + C[n+]1ccc(-c2cc[n+](C)cc2)cc1 [Paraquat], for which the Bliss interaction score in test [1] was -0.101; in test [2] it was 0.0783; in test [3] it was 0.0488; in test [4], -0.036.
Take `N[C@@H]1CONC1=O` [CycloserineD] + Cc1cc(NS(=O)(=O)c2ccc(N)cc2)no1 [Sulfamethoxazol]: the Bliss interaction score in test [1] was -0.188; in test [2] it was 0.0715; in test [3], 0.0449; in test [4] it was -0.0418.
As for `N[C@@H]1CONC1=O` [CycloserineD] + Cc1ncc([N+](=O)[O-])n1CCO [Metronidazole], the Bliss interaction score in test [1] was -0.0766; in test [2], 0.0317; in test [3], 0.0557; in test [4], -0.0606.
For the compound `N[C@@H]1CONC1=O` [CycloserineD] + Cc1onc(-c2ccccc2)c1C(=O)N[C@@H]1C(=O)N2[C@@H]1SC(C)(C)[C@@H]2C(=O)O [Oxacillin], the Bliss interaction score in test [1] was -0.17; in test [2], 0.0729; in test [3], -0.0567; in test [4], 0.0509.
As for `N[C@@H]1CONC1=O` [CycloserineD] + Clc1ccc(COC(Cn2ccnc2)c2ccc(Cl)cc2Cl)c(Cl)c1 [Miconazole], the Bliss interaction score was -0.0729 in test [1], 0.0763 in test [2], -0.0328 in test [3] and 0.0883 in test [4].
For `N[C@@H]1CONC1=O` [CycloserineD] + Cn1nnc(-c2ccc(-c3ccc(N4C[C@H](CO)OC4=O)cc3F)cn2)n1 [Tedizolid] the same measures were 0.126, -0.101, 0.0593 and 0.0364.
For `N[C@@H]1CONC1=O` [CycloserineD] + O=C1CN(/N=C/c2ccc([N+](=O)[O-])o2)C(=O)N1 [Nitrofurantoin] the same measures were 0.197, 0.0785, -0.0425 and 0.173.
As to `N[C@@H]1CONC1=O` [CycloserineD] + O=C(O[C@@H]1Cc2c(O)cc(O)cc2O[C@@H]1c1cc(O)c(O)c(O)c1)c1cc(O)c(O)c(O)c1 [EGCG], the Bliss interaction score was -0.0875 in test [1], -0.107 in test [2], 0.0286 in test [3] and -0.114 in test [4].
Turning to `N[C@@H]1CONC1=O` [CycloserineD] + Oc1cc(Cl)ccc1Oc1ccc(Cl)cc1Cl [Triclosan], the Bliss interaction score in test [1] was -0.11; in test [2], 0.0965; in test [3], 0.0356; in test [4], 0.0246.
For `O=C(O[C@@H]1Cc2c(O)cc(O)cc2O[C@@H]1c1cc(O)c(O)c(O)c1)c1cc(O)c(O)c(O)c1` [EGCG] + CC1(C)S[C@@H]2[C@H](NC(=O)Cc3ccccc3)C(=O)N2[C@H]1C(=O)O [PenicillinG], in that order: 0.108, 0.059, 0.0531 and 0.0517.
In the case of `O=C(O[C@@H]1Cc2c(O)cc(O)cc2O[C@@H]1c1cc(O)c(O)c(O)c1)c1cc(O)c(O)c(O)c1` [EGCG] + CC(=O)O[C@H]1C[C@@]2(C)[C@@H](C[C@@H](O)[C@H]3[C@@]4(C)CC[C@@H](O)[C@@H](C)[C@@H]4CC[C@@]32C)/C1=C(\CCC=C(C)C)C(=O)O [Fusidic acid], the Bliss interaction score is -0.143 in test [1], -0.019 in test [2], -0.0283 in test [3] and 0.0767 in test [4].
